Experimental data taken from PubChem BioAssay (NCI).
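Values below derive from 48-hour exposures of cells grown in 96-well plates, with endpoints linearly interpolated between the two concentrations bracketing the appropriate inhibition level. TGI: total growth inhibition.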

system: SR leukemia; test: NCI tumour cell line growth inhibition, 48 h

| SMILES | TGI [µM] |
| --- | --- |
| CSc1sc2ccccc2[s+]1 | > 100 |
| C=CC[C@]12C=C(OC)[C@@H](O)[C@](OC)(C(c3cc(OC)c4c(c3)OCO4)[C@H]1C)[C@H]2OC(C)=O (stereo not given in full) | > 100 |
| C=C(Cl)C(C)(Cl)CCC(Br)C(C)(C)Cl (stereo not given) | 93.6 |
| COC(=O)C1CCCN1C(=O)C(Cc1cn(S(=O)(=O)c2ccc(C)cc2)cn1)NC(=O)OC(C)(C)C (stereo not given) | > 100 |
| Nc1ccc(S2(c3ccc(N)cc3)C=C(c3ccccc3)C(c3ccccc3)=C2)cc1 | > 100 |
| COc1ccc2c(cnc3c4cc(OC)c(OC)cc4ccc23)c1 | > 100 |
| O=C1C(=Cc2ccccc2O)N=C(c2ccccc2)N1n1c(-c2ccccc2)nc2ccccc2c1=O | > 100 |
| CC(=O)O[C@]12CCCCCC1C1(O)C(O)CCCC[C@H]12 (stereo not given in full) | > 100 |
| COC(=O)C1=C(C)NC(C)=C(C(=O)OC)C1c1nc2sccn2c1[N+](=O)[O-] | > 100 |
| O=c1c(C(c2ccc(Cl)cc2)c2c(O)c3ccccc3n(-c3ccccc3)c2=O)c(O)c2ccccc2n1-c1ccccc1 | > 100 |
| CCNC(=O)Nc1cccc(NC(=O)NCC)n1 | > 100 |
| C=CCOc1ccc(C2C(C(=O)OCC)C(=O)CC(C)(O)C2C(=O)OCC)cc1OC (stereo not given) | > 100 |
| CC(C)=CCNc1ncnc2c1ncn2CCC#N | > 100 |
| Nc1nc(Cl)cc(NCC2(CO)CCCC2)n1 | > 100 |

system: PC-3 prostate; test: NCI tumour cell line growth inhibition, 48 h

| SMILES | TGI [µM] |
| --- | --- |
| C=CC[C@]12C=C(OC)[C@@H](O)[C@](OC)(C(c3cc(OC)c4c(c3)OCO4)[C@H]1C)[C@H]2OC(C)=O (stereo not given in full) | > 100 |
| C=C(Cl)C(C)(Cl)CCC(Br)C(C)(C)Cl (stereo not given) | > 100 |
| COC(=O)C1CCCN1C(=O)C(Cc1cn(S(=O)(=O)c2ccc(C)cc2)cn1)NC(=O)OC(C)(C)C (stereo not given) | > 100 |
| Nc1ccc(S2(c3ccc(N)cc3)C=C(c3ccccc3)C(c3ccccc3)=C2)cc1 | > 100 |
| COc1ccc2c(cnc3c4cc(OC)c(OC)cc4ccc23)c1 | > 100 |
| O=C1C(=Cc2ccccc2O)N=C(c2ccccc2)N1n1c(-c2ccccc2)nc2ccccc2c1=O | > 100 |
| COC(=O)C1=C(C)NC(C)=C(C(=O)OC)C1c1nc2sccn2c1[N+](=O)[O-] | > 100 |
| CCNC(=O)Nc1cccc(NC(=O)NCC)n1 | > 100 |
| C=CCOc1ccc(C2C(C(=O)OCC)C(=O)CC(C)(O)C2C(=O)OCC)cc1OC (stereo not given) | > 100 |
| CC(C)=CCNc1ncnc2c1ncn2CCC#N | > 100 |
| Nc1nc(Cl)cc(NCC2(CO)CCCC2)n1 | > 100 |

system: HS 578T breast; test: NCI tumour cell line growth inhibition, 48 h

| SMILES | TGI [µM] |
| --- | --- |
| C=CC[C@]12C=C(OC)[C@@H](O)[C@](OC)(C(c3cc(OC)c4c(c3)OCO4)[C@H]1C)[C@H]2OC(C)=O (stereo not given in full) | > 100 |
| C=C(Cl)C(C)(Cl)CCC(Br)C(C)(C)Cl (stereo not given) | 57.8 |
| COC(=O)C1CCCN1C(=O)C(Cc1cn(S(=O)(=O)c2ccc(C)cc2)cn1)NC(=O)OC(C)(C)C (stereo not given) | > 100 |
| Nc1ccc(S2(c3ccc(N)cc3)C=C(c3ccccc3)C(c3ccccc3)=C2)cc1 | > 100 |
| COc1ccc2c(cnc3c4cc(OC)c(OC)cc4ccc23)c1 | > 100 |
| O=C1C(=Cc2ccccc2O)N=C(c2ccccc2)N1n1c(-c2ccccc2)nc2ccccc2c1=O | > 100 |
| COC(=O)C1=C(C)NC(C)=C(C(=O)OC)C1c1nc2sccn2c1[N+](=O)[O-] | > 100 |
| CCNC(=O)Nc1cccc(NC(=O)NCC)n1 | > 100 |
| C=CCOc1ccc(C2C(C(=O)OCC)C(=O)CC(C)(O)C2C(=O)OCC)cc1OC (stereo not given) | > 100 |
| CC(C)=CCNc1ncnc2c1ncn2CCC#N | > 100 |
| Nc1nc(Cl)cc(NCC2(CO)CCCC2)n1 | > 100 |

system: M19-MEL melanoma; test: NCI tumour cell line growth inhibition, 48 h

| SMILES | TGI [µM] |
| --- | --- |
| COc1c(C(C)C)cc2c3c1OC(=O)[C@@]31CCCC(C)(C)C1CC2 (stereo not given in full) | 80.8 |
| OCc1ccc(C2CC(c3ccco3)=NN2c2ccccc2)o1 (stereo not given) | > 100 |
| COc1ccc(C2COc3cc(O)c(O)cc3C2)cc1 (stereo not given) | 86.6 |
| CCOC(=O)c1ccc(C)c(N=NN(C)C)c1 | > 100 |
| COc1cc2c3c(c1OC)C1(C=CC(=O)C=C1)C[C@H]3N(C)CC2 | > 100 |
| O=NN(CCCl)C(=O)NC1CCC(O)CC1 (stereo not given) | > 91 |
| O=C(CN(c1ccccc1)c1ccccc1)n1nnc2ccccc21 | 48.6 |
| CSc1sc2ccccc2[s+]1 | > 100 |
| Cc1ccc(S(=O)(=O)C(C#N)c2nc3ccccc3nc2-n2ccnc2)cc1 (stereo not given) | > 100 |
| CC(=O)O[C@]12CCCCCC1C1(O)C(O)CCCC[C@H]12 (stereo not given in full) | > 100 |
| O=c1c(C(c2ccc(Cl)cc2)c2c(O)c3ccccc3n(-c3ccccc3)c2=O)c(O)c2ccccc2n1-c1ccccc1 | > 100 |

system: XF 498 CNS; test: NCI tumour cell line growth inhibition, 48 h

| SMILES | TGI [µM] |
| --- | --- |
| OCc1ccc(C2CC(c3ccco3)=NN2c2ccccc2)o1 (stereo not given) | > 100 |
| CCOC(=O)c1ccc(C)c(N=NN(C)C)c1 | > 100 |
| COc1cc2c3c(c1OC)C1(C=CC(=O)C=C1)C[C@H]3N(C)CC2 | > 100 |
| O=NN(CCCl)C(=O)NC1CCC(O)CC1 (stereo not given) | 60.3 |
| Cc1ccc(S(=O)(=O)C(C#N)c2nc3ccccc3nc2-n2ccnc2)cc1 (stereo not given) | > 100 |
| CC(=O)O[C@]12CCCCCC1C1(O)C(O)CCCC[C@H]12 (stereo not given in full) | > 100 |
| O=c1c(C(c2ccc(Cl)cc2)c2c(O)c3ccccc3n(-c3ccccc3)c2=O)c(O)c2ccccc2n1-c1ccccc1 | 69.4 |

system: P388/ADR leukemia; test: NCI tumour cell line growth inhibition, 48 h

| SMILES | TGI [µM] |
| --- | --- |
| COc1ccc(C2COc3cc(O)c(O)cc3C2)cc1 (stereo not given) | 8.53 |
| O=NN(CCCl)C(=O)NC1CCC(O)CC1 (stereo not given) | 18 |

system: KM20L2 colon; test: NCI tumour cell line growth inhibition, 48 h

| SMILES | TGI [µM] |
| --- | --- |
| COc1c(C(C)C)cc2c3c1OC(=O)[C@@]31CCCC(C)(C)C1CC2 (stereo not given in full) | > 100 |
| OCc1ccc(C2CC(c3ccco3)=NN2c2ccccc2)o1 (stereo not given) | > 100 |
| COc1ccc(C2COc3cc(O)c(O)cc3C2)cc1 (stereo not given) | 221 |
| CCOC(=O)c1ccc(C)c(N=NN(C)C)c1 | > 100 |
| COc1cc2c3c(c1OC)C1(C=CC(=O)C=C1)C[C@H]3N(C)CC2 | > 100 |
| O=NN(CCCl)C(=O)NC1CCC(O)CC1 (stereo not given) | > 100 |
| O=C(CN(c1ccccc1)c1ccccc1)n1nnc2ccccc21 | > 100 |
| CSc1sc2ccccc2[s+]1 | > 100 |
| CC(=O)O[C@]12CCCCCC1C1(O)C(O)CCCC[C@H]12 (stereo not given in full) | > 100 |
| O=c1c(C(c2ccc(Cl)cc2)c2c(O)c3ccccc3n(-c3ccccc3)c2=O)c(O)c2ccccc2n1-c1ccccc1 | > 100 |

system: DMS 114 small cell lung; test: NCI tumour cell line growth inhibition, 48 h

| SMILES | TGI [µM] |
| --- | --- |
| OCc1ccc(C2CC(c3ccco3)=NN2c2ccccc2)o1 (stereo not given) | > 100 |
| CCOC(=O)c1ccc(C)c(N=NN(C)C)c1 | > 100 |
| COc1cc2c3c(c1OC)C1(C=CC(=O)C=C1)C[C@H]3N(C)CC2 | > 100 |
| O=NN(CCCl)C(=O)NC1CCC(O)CC1 (stereo not given) | 51.5 |
| O=C(CN(c1ccccc1)c1ccccc1)n1nnc2ccccc21 | 85.7 |
| CSc1sc2ccccc2[s+]1 | > 100 |
| Cc1ccc(S(=O)(=O)C(C#N)c2nc3ccccc3nc2-n2ccnc2)cc1 (stereo not given) | > 100 |
| CC(=O)O[C@]12CCCCCC1C1(O)C(O)CCCC[C@H]12 (stereo not given in full) | > 100 |
| O=c1c(C(c2ccc(Cl)cc2)c2c(O)c3ccccc3n(-c3ccccc3)c2=O)c(O)c2ccccc2n1-c1ccccc1 | > 100 |
